# Measurements reported in publication PMC9229843, “Cancer-Related Somatic Mutations in Transmembrane Helices Alter Adenosine A1 Receptor Pharmacology” (Molecules, 2022).
# Residue numbers refer to the chain shown, from its start. Entries after “also recorded” stand apart in the source; their conditions may differ.
# Legend:
# Experiment in all cases: yeast liquid growth assay
# Assay type in all cases: cell-based
# hA1AR H78L^3.23 = molecular target: T1, hA1AR H78L^3.23 (Homo sapiens, UniProt P30542, H78L)
# T1 sequence (P30542 1-326 H78L): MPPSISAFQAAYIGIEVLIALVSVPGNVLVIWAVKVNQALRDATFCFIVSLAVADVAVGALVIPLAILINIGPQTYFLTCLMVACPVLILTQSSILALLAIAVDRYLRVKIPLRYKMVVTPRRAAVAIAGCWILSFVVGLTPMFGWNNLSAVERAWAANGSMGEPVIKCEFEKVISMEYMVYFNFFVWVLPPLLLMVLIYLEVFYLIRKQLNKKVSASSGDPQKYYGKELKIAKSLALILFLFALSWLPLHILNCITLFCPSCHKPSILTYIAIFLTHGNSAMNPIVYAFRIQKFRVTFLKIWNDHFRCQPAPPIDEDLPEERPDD
# Method: (§1) The plasmids, pDT-PGK_hA1AR, containing either wild type or mutated hA1AR were transformed into a MMY24 S. cerevisiae strain following the lithium acetate procedure.
# (§2) In order to characterize the mutant hA1ARs, liquid growth assays in 96-well plates were performed to obtain concentration–growth curves as previously described. […] The overnight cultures were then diluted to 40,000 cells/mL (OD600 ≈ 0.02) in a selective medium without uracil, leucine, and histidine (YNB-ULH). For the determination of constitutive activity, 50 μL of yeast cells and 150 μL of YNB-ULH medium containing different concentrations of 3-AT and 0.8 IU/mL ADA were then added to each well. To obtain concentration–growth curves, 2 μL of various concentrations of ligands, 50 μL of yeast cells, and 150 μL of YNB-ULH medium containing 7 mM 3-AT and 0.8 IU/mL ADA were then added to each well. After incubation at 30 °C for 35 h in a Genios plate reader (TECAN, Zürich, Switzerland) with shaking for 1 min at 300 rpm every 10 min, the optical density was measured at a wavelength of 595 nm, which represented the level of yeast cell growth.
# (§3) All experimental data were analyzed by GraphPad Prism 7.0 or 8.0 (GraphPad Software Inc., San Diego, CA, USA). Data from yeast liquid growth and [^35S]GTPγS binding assays were analyzed by non-linear regression using “log (agonist) vs. response (three parameters)” or “log (inhibitor) vs. response (three parameters)” to obtain potency (EC50), inhibitory potency (IC50), and efficacy (Emax or Imax) values. The radioligand displacement curves were obtained from a statistically preferred one-site or two-site binding model. pKi values were calculated from pIC50 values using the Cheng–Prusoff equation, where KD values were obtained from the homologous competition assays from this study and calculated by non-linear regression using “one site–homologous” [62].
# hA1AR L134F^4.52 = molecular target: T2, hA1AR L134F^4.52 (Homo sapiens, UniProt P30542, L134F); details: result in words
# T2 sequence (P30542 1-326 L134F): T1 sequence (P30542 1-326 H78L) with L78H, L134F
# Method: as §1, §2, §3
# hA1AR P86L^3.31 = molecular target: T3, hA1AR P86L^3.31 (Homo sapiens, UniProt P30542, P86L); details: result in words
# T3 construct: expressed in transfected cells; host or cells: S. cerevisiae MMY24
# T3 sequence (P30542 1-326 P86L): T1 sequence (P30542 1-326 H78L) with L78H, P86L
# Method: as §1, §2, §3
# hA1AR R122Q^4.40 = molecular target: T4, hA1AR R122Q^4.40 (Homo sapiens, UniProt P30542, R122Q); details: ratio over basal activity of wild type hA1AR, 7 mM 3-AT
# T4 construct: expressed in transfected cells; host or cells: S. cerevisiae MMY24
# T4 sequence (P30542 1-326 R122Q): T1 sequence (P30542 1-326 H78L) with L78H, R122Q
# Method: as §1, §2, §3
# hA1AR S267I^7.32 = molecular target: T5, hA1AR S267I^7.32 (Homo sapiens, UniProt P30542, S267I); details: result in words
# T5 construct: expressed in transfected cells; host or cells: S. cerevisiae MMY24
# T5 sequence (P30542 1-326 S267I): T1 sequence (P30542 1-326 H78L) with L78H, S267I
# Method: as §1, §2, §3
smiles,measurement,setting,value
"OC[C@H]1O[C@@H](n2cnc3c(NC4CCCC4)ncnc32)[C@H](O)[C@@H]1O [CPA, N^6-cyclopentyladenosine]",Emax,"hA1AR H78L^3.23; ratio over basal activity of wild type hA1AR, 7 mM 3-AT",4.15 ± 0.17
same,agonist-induced receptor activation,hA1AR H78L^3.23; result in words,further activation could not be obtained
same,agonist-induced receptor activation,hA1AR L134F^4.52,could not be activated
same,agonist-induced receptor activation,hA1AR P86L^3.31,could not be activated
same,Emax,hA1AR R122Q^4.40,4.67 ± 0.22
same,agonist-induced receptor activation,hA1AR S267I^7.32,could not be activated; also recorded: complete loss of activation
